Reference: patent US10226514B2, “Methods and compositions for reducing blood glucose levels” (The Children's Medical Center Corporation, priority 2011, dated 2019)
Entries after “also recorded” stand apart in the source; their conditions may differ.

Key:
XBP1s mRNA = XBP1s mRNA levels and stability (Q-PCR, actinomycin D); type: cell-based, mouse
Procedure: Total RNA was extracted from cells or animal tissues using Trizol reagent (Invitrogen) and transcribed into cDNA using cDNA synthesis kit (Bio-Rad). The gene expression analysis was performed with iQ5 Multicolor Real-Time PCR Detection System (Bio-Rad) with SYBR Green Supermix (Bio-Rad). The mRNA level was normalized to 18S as a house keeping gene. The primer sequences used were:
For mRNA stability determination, MEF cells were infected with Ad-XBP1s. Sixteen hour after the infection, cells were treated with anisomycin (25 ng/ml) or vehicle (DMSO) for 1 h. Actinomycin D (10 μg/ml, Sigma) was added to the medium. Cells were flash frozen in liquid nitrogen at various time points. mRNA levels were determined via Q-PCR.

XBP1s [1] = experiment: XBP1s phosphorylation at Thr48 and Ser61 in cells (MS/MS, phospho-specific antibodies); type: cell-based, mouse; conditions: anisomycin 25 ng/ml
Procedure: MEFs were infected with flag-tagged XBP1s expressing adenovirus and treated with anisomycin (25 ng/ml) for 2 h. Cells were washed with ice-cold PBS and lysed with RIPA buffer (50 mM Tris-HCl, pH 7.5; 2 mM EGTA; 0.3% CHAPS; 100 mM NaF; 10 mM Na4P2O7; 1 mM Na3VO4; 10 μg/ml Leupeptin; 10 μg/ml Aprotinin; 2 mM PMSF and 20 nM Okadaic acid). After overnight incubation with anti-flag antibody, Protein A sepharose beads were added for additional 2 h at 4° C. Immunoprecipates were washed three times with RIPA buffer containing 150 mM NaCl and boiled for 5 min in 2× Laemmli buffer for elution of immunoprecipitated XBP1s. Samples were resolved in SDS-PAGE and stained with Coomassie blue (Bio-Rad). Protein from Coomassie-stained gel bands was digested with trypsin and the resulting peptide mixtures were subjected to microcapillary liquid chomatography tandem mass spectrometry (LC-MS/MS). MS/MS spectra were assigned by searching them with the XBP1s protein sequence using the SEQUEST algorithm.
Similar results were obtained from XBP1s^Ser61 phosphorylation.

p38 MAPK = p38 MAPK phosphorylation in anisomycin-treated knock-out cells; type: cell-based
Excerpt: It is known that MAPK kinase kinase (MKK) 4 and 7 are upstream kinases responsible for JNK activation (Tournier, C., et al. (2001) Genes Dev 15:1419-1426; Brancho, D., et al. (2003) Genes Dev 17:1969-1978) and anisomycin or TNFα cannot activate JNK in MKK4 and 7 double knock out cells (MKK4,7^−/−) (Tournier, C., et al. (2001) Genes Dev 15:1419-1426; Schaeffer, H. J. & Weber, M. J. (1999) Mol Cell Biol 19:2435-2444). In order to determine whether XBP1s can be regulated by anisomycin treatment in MKK4,7^−/− cells, these cells, along with their controls, were treated with anisomycin after XBP is expression. […] Furthermore, the experiments were repeated in JNK1,2^−/− and MKK4,7^−/− cells with TNFα. […] Finally, an MKK7-JNK1 fusion protein, previously shown to be a specific activator of JNK (Lei, K., et al. (2002) Mol Cell Biol 22:4929-4942), was used to investigate whether activation of JNK alone can have effect on XBP1s.

XBP1s [2] = experiment: Cytoplasmic and nuclear XBP1s protein in cells; type: cell-based, mouse; conditions: anisomycin 25 ng/ml, two hours
Procedure: Cytoplasmic and nuclear protein fractions were extracted from cells by using nuclear protein extraction kit from Active Motif (Carlsbad, Calif.). Cells were maintained in 10 cm tissue culture dishes for nuclear/cytoplasmic extraction. After removal of the media, cells were washed with ice-cold phosphate buffered saline (PBS) containing phosphatase inhibitors. Subsequently, 3 ml of ice-cold PBS with phosphatase inhibitors was added and then cells were scrapped out of the dish. Collected cells were separated from PBS by centrifugation for 5 minutes at 500 rpm and resuspended with 500 μl of 1× hypotonic buffer. After 15-minute incubation in hypotonic buffer on ice, 25 μl of supplied detergent was added and cells were vortexed 10 seconds. Cells were centrifuged for 30 seconds at 14,000×g and supernatant (cytoplasmic fraction) was saved for further analysis. Remaining pellet, which contains nuclei, were resuspended with 50 μl of provided complete lysis buffer with 1 mM dithiothreitol (DTT), vortexed 10 seconds, and incubated for 30 minutes on ice. After 30-second vortexing and 10-minute centrifugation at 14,000×g, the supernatant was collected and analyzed as nuclear fraction.

XBP1s [3] = experiment: XBP1s levels in Ad-XBP1s-infected Fao cells; type: cell-based; conditions: Ad-XBP1s-infected Fao cells (rat hepatoma)
Procedure: MEF cells were from American Type Tissue Collection (ATCC). These cells were grown in Dulbecco's Modified Eagel Medium (DMEM) supplemented with 10% fetal bovine serum (FBS), 10 U/ml penicillin and 1 μg/ml streptomycin at 37° C. and 5% CO2. Fao cells were maintained in RPMI 1640 medium (Invitrogen) supplemented with 10% fetal bovine serum (FBS), 10 U/ml penicillin and 1 μg/ml streptomycin.
Adenovirus expressing XBP1s T48A, XBP1s S61A, XBP1s T48A/S61A and MKK6Glu were produced with ViraPower Adenoviral Expression System (Invitrogen) according to manufacturer's instruction. Briefly, pAD-XBP1s T48A, pAD-XBP1s S61A, pAd-XBP1s T48A/S61A and pAd-MKK6Glu were linearized by restriction endonuclease digestion with PacI and transfected to 293A cells by Lipofectamine. The media was changed with fresh media every other day until the cytopathic effect was observed. When cytopathic effect reached to 80%, cells were collected by centrifugation. The pellet was resuspended in PBS and subjected to freezing and thawing cycles at −80° C. and 37° C. for 4 times. The supernatant containing the virus was prepared by centrifugation at 4,000 rpm for 20 min at room temperature. […]
Western blot analysis was performed as previously described (Ozcan, L., et al. (2009) Cell metabolism 9:35-51). […] Relative protein levels were quantified by Image J program.

COc1ccc(C[C@H]2NC[C@H](O)[C@H]2OC(C)=O)cc1 [anisomycin]
enhanced stability of XBP1s mRNA (XBP1s mRNA; MK2−/− cells, anisomycin 25 ng/ml): completely lost | XBP1s mRNA stability (XBP1s mRNA; TTP−/− cells, anisomycin 25 ng/ml one hour, actinomycin D 10 μg/ml): capable of increasing XBP1s mRNA stability | XBP1s mRNA levels (XBP1s mRNA; XBP1s expressing control cells, one hour): dramatic increase in mRNA of XBP1s; also recorded: increased the mRNA levels of XBP1s in a dose dependent manner | phosphorylation of XBP1s at Ser61 (XBP1s [1]): increases phosphorylation of XBP1s at Ser61; also recorded: strongly induced phosphorylation of XBP1s at Ser61 | phosphorylation of XBP1s at Thr48 (XBP1s [1]): greatly increased phosphorylation of the Thr48 residue | p38 MAPK phosphorylation (p38 MAPK; JNK1,2−/− cells): marked increase in p38 MAPK phosphorylation | p38 MAPK activation (p38 MAPK; MKK4,7−/− cells): significantly increased | cytoplasmic levels of XBP1s vs vehicle-treated cells (XBP1s [2]): 28.8 times | nuclear levels of XBP1s vs vehicle-treated cells (XBP1s [2]): 141.8 times | XBP1s levels (XBP1s [3]): dramatically upregulating their XBP1s levels
